Experimental data taken from ChEMBL document CHEMBL2203171, “The use of small molecule probes to study spatially separated stimulus-induced signaling pathways” (Bioorg Med Chem Lett, 2012).
The source made the active and inactive calls. The rule behind the calls is not given here.

Assays:
Type in all cases: cell-based
[1] = molecular target: T1, Inhibitor of nuclear factor kappa-B kinase subunit beta (Mus musculus) (UniProt O88351); assay: Inhibition of IKKbeta in C57BL/6 mouse BMDM cells assessed as inhibition of TNFalpha-induced IkappaBalpha degradation at 50 uM up to 90 mins by Western blot analysis
T1 sequence (whole entry): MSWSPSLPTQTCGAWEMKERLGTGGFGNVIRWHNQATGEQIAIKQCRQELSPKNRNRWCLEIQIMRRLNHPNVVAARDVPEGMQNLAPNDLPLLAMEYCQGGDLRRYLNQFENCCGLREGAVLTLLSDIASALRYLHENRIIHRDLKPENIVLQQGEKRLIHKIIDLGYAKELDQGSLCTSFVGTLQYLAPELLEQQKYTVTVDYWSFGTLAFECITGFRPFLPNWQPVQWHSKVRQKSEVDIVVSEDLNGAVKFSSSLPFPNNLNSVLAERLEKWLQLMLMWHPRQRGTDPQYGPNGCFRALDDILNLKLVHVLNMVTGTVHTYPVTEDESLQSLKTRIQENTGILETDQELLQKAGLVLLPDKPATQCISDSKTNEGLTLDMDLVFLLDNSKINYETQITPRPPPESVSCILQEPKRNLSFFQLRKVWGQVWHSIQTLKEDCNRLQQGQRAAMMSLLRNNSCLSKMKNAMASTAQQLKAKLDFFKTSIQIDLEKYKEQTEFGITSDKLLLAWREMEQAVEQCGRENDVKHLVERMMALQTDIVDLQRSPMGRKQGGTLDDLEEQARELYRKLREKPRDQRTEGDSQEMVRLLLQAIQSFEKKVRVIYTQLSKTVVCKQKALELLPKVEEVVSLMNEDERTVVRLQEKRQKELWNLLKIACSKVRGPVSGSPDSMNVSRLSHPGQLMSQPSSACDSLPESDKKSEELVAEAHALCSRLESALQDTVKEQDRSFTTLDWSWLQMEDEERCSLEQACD

[2] = molecular target: T1, Inhibitor of nuclear factor kappa-B kinase subunit beta (Mus musculus); assay: Inhibition of IKKbeta in C57BL/6 mouse BMDM cells assessed as inhibition of TNFalpha-induced IkappaBalpha phosphorylation at 50 uM up to 90 mins by Western blot analysis
[3] = molecular target: T2, MAP kinase p38 (Mus musculus) (UniProt P47811+O08911+Q9WUI1+Q9Z1B7); assay: Inhibition of MAPK p38 in C57BL/6 mouse BMDM cells assessed as inhibition of TNFalpha-induced phosphorylation at 50 uM up to 90 mins by Western blot analysis
[4] = molecular target: T1, Inhibitor of nuclear factor kappa-B kinase subunit beta (Mus musculus); assay: Inhibition of IKKbeta in C57BL/6 mouse BMDM cells assessed as inhibition of LPS-induced IkappaBalpha degradation at 50 uM up to 90 mins by Western blot analysis
[5] = molecular target: T1, Inhibitor of nuclear factor kappa-B kinase subunit beta (Mus musculus); assay: Inhibition of IKKbeta in C57BL/6 mouse BMDM cells assessed as inhibition of LPS-induced IkappaBalpha phosphorylation at 50 uM up to 90 mins by Western blot analysis
[6] = molecular target: T2, MAP kinase p38 (Mus musculus); assay: Inhibition of MAPK p38 in C57BL/6 mouse BMDM cells assessed as inhibition of LPS-induced phosphorylation at 50 uM up to 90 mins by Western blot analysis

inhibition [1] | inhibition [2] | inhibition [3] | inhibition (active/not active) [4] | inhibition of IkappaBalpha phosphorylation (active/not active) [5] | inhibition [6] | Compound
inactive | inactive | inactive | inactive | inactive | inactive | COc1ccc(-c2ccc(C(C(=O)NC(C)(C)C)N(C(=O)CCc3ccc(O)c(O)c3)C(C)(C)C)cc2)cc1 (configuration not stated)
inactive | inactive | inactive | inactive | inactive | inactive | COc1ccc(C(=O)N(Cc2ccccn2)C(C(=O)NC(C)(C)C)c2ccc(-c3ccc(OC)cc3)cc2)cc1 (configuration not stated)
